Reference: patent publication US20110034507A1, “FARNESOID X RECEPTOR AGONISTS” (SMITHKLINE BEECHAM CORPORATION, priority 2007, published 2011)

Target: T1, Human FXRα Ligand Binding Domain (Homo sapiens, UniProt Q96RI1)
T1 construct: polyhistidine (pRSET-A vector leader) (N); made in house; host or cells: E. coli BL21 (DE3), pRSET-A vector
T1 sequence (Q96RI1 237-472 isoform Q96RI1-2): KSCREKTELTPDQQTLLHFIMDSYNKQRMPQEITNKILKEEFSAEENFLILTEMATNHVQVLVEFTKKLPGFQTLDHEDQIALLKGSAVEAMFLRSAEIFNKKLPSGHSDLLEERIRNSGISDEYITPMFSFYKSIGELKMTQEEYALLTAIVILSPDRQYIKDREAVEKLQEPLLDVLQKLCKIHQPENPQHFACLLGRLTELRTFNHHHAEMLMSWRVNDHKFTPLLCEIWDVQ
Assay: FXR Cofactor Binding Assay (ligand mediated SRC-1 cofactor peptide interaction, time resolved fluorescence)
Type: biochemical
Settings: FXRα LBD / SRC-1 (LCD2, 676-700) peptide, TRF; read-out: Activity (pEC50) (converted)
From the text: Determination of a ligand mediated cofactor peptide interaction to quantify ligand binding to the nuclear receptor Farnesoid X Receptor (FXR). The method measures the ability of putative ligands to modulate the interaction between the purified bacterial expressed FXRα ligand binding domain (LBD) and a synthetic biotinylated peptide based on residues 676-700 of steroid receptor coactivator-1 (SRC-1) (LXXLL-containing domain-2 where L is the amino acid leucine and X indicates any other amino acid (LCD2), 676-700). The sequence of the SRC-1 peptide used is as published in Iannone, M. A., et al., 2001 Cytometry 44:326-337 where the N-terminus was biotinylated (B) and the C-terminus was amidated. Detection of the associated complex was measured by time resolved fluorescence (TRF). The purified LBD of FXR was labeled with biotin, then mixed with stoichiometric amounts of allophycocyanin (APC) labeled streptavidin (Molecular Probes). The biotinylated peptide was then mixed with a ½ stoichiometric amount of europium labeled streptavidin (Wallac Inc). Each was then blocked with a 5 fold excess of biotin and allowed to equilibrate for 15 min. Equimolar amounts of receptor and peptide were mixed together and were allowed to equilibrate for at least 30 min prior to the addition to either a variable or constant concentrations of the sample for which the affinity is to be determined. After equilibration, the time-resolved fluorescent signal was quantitated using a fluorescent plate reader. The affinity of the test compound was estimated from a plot of fluorescence versus concentration of test compound added.
Ligands that promote the complex formation induce a concentration-dependent increase in time-resolved fluorescent signal.
Human FXRα Ligand Binding Domain (FXRα LBD) was expressed in E. coli strain BL21 (DE3) as an amino-terminal polyhistidine tagged fusion protein. Expression was under the control of an isopropyl-β-D-thiogalactopyranoside (IPTG) inducible T7 promoter. DNA encoding this recombinant protein is subcloned into the pRSET-A expression vector (Invitrogen). The coding sequence of Human FXRα LBD was derived from Genbank accession number U 68233 (amino acids 237 to 472).
Ten-liter fermentation batches were grown in Rich PO4 media with 0.1 mg/mL Ampicillin at 25° C. for 12 hours, cooled to 9° C. and held at that temperature for 36 hours to a density of OD600=14. At this cell density, 0.25 mM IPTG is added and induction proceeded for 24 hours at 9° C., to a final OD600=16. Cells are harvested by centrifugation (20 minutes, 3500×gravity, 4° C.), and concentrated cell slurries were stored in phosphate buffered saline (PBS) at […].
Routinely, 30-40 g cell paste (equivalent to 2-3 liters of the fermentation batch) was resuspended in 200-250 mL Tris buffered saline (TBS), pH 7.2 (25 mM Tris-hydroxymethylamino methane (Tris), 150 mM sodium chloride). Cells were lysed by passing 3 times through a French Press and cell debris was removed by centrifugation (30 minutes, 20,000×gravity, 4° C.). The cleared supernatant was filtered through course pre-filters, and TBS, pH 7.2, 500 mM imidazole was added to obtain a final imidazole concentration of 50 mM. This lysate was loaded onto a column (6×8 cm) packed with Sepharose [Ni^++ charged] Chelation resin (Pharmacia) and pre-equilibrated with TBS pH 7.2/50 mM imidazole. After washing to baseline absorbance with equilibration buffer, the column was washed with one column volume of TBS pH 7.2 containing 90 mM imidazole. FXRα LBD was eluted directly with 365 mM imidazole. Column fractions were pooled and dialyzed against TBS, pH 7.2, containing 0.5 mM EDTA and 5 mM DTT. The dialyzed protein sample was concentrated using Centri-prep 10 K (Amicon) and subjected to size exclusion, using a column (3×90 cm) packed with Sepharose S-75 resin (Pharmacia) pre-equilibrated with TBS, pH 7.2, containing 0.5 mM ethylene diamine tetraacetic acid (EDTA) and 5 mM dithiothreitol (DTT).

`CC(C)c1onc(CNc2c(Cl)cccc2Cl)c1COc1ccc2c(ccn2Cc2cccc(C(=O)O)c2)c1` [Example 4, 3-{[5-({[3-{[(2,6-dichlorophenyl)amino]methyl}-5-(1-methylethyl)-4-isoxazolyl]methyl}oxy)-1H-indol-1-yl]methyl}benzoic acid] showed an EC50 of 1.02 to 10 µM.

`CC(C)c1onc(-c2c(Cl)cccc2Cl)c1COc1ccc2c(ccn2C(=O)c2cccc(C(=O)O)c2)c1` [Example 10, 3-{[5-({[3-(2,6-Dichlorophenyl)-5-(1-methylethyl)-4-isoxazoly]methyl}oxy)-1H-indol-1-yl]carbonyl}benzoic acid] gave an EC50 of 0.102 to 1 µM.

For `Cc1ccc(Cn2ccc3cc(OCc4c(-c5c(Cl)cccc5Cl)noc4C(C)C)ccc32)cc1C(=O)O` [Example 48, 5-{[5-({[3-(2,6-Dichlorophenyl)-5-(1-methylethyl)-4-isoxazolyl]methyl}oxy)-1H-indol-1-yl]methyl}-2-methylbenzoic acid], the EC50 was 0.102 to 1 µM.

Compound `CC(C)c1onc(COc2c(F)cc(F)cc2F)c1COc1ccc2c(ccn2Cc2cccc(C(=O)O)c2)c1` [Example 2, 3-[(5-{[(5-(1-methylethyl)-3-{[(2,4,6-trifluorophenyl)oxy]methyl}-4-isoxazolyl)methyl]oxy}-1H-indol-1-yl)methyl]benzoic acid] has an EC50 of 1.02 to 10 µM.

Compound `CC(C)c1onc(-c2c(Cl)cccc2Cl)c1COc1ccc2cc(-c3ccc(NS(=O)(=O)C(F)(F)F)cc3)ccc2c1` [Example 32, N-{4-[6-({[3-(2,6-dichlorophenyl)-5-(1-methylethyl)-4-isoxazolyl]methyl}oxy)-2-naphthalenyl]phenyl}-1,1,1-trifluoromethanesulfonamide] has an EC50 of 0.102 to 1 µM.

Compound `CC(C)c1onc(-c2c(Cl)cccc2Cl)c1COc1ccc2c(ccn2Cc2ccc(-c3nnn[nH]3)cc2)c1` [Example 46, 5-({[3-(2,6-Dichlorophenyl)-5-(1-methylethyl)-4-isoxazolyl]methyl}oxy)-1-{[4-(1H-tetrazol-5-yl)phenyl]methyl}-1H-indole] has an EC50 of under 0.1 µM.

Work on `CC(C)c1onc(-c2c(Cl)cccc2Cl)c1COc1ccc2cc(-c3ccc(C(=O)O)s3)ccc2c1` [Example 25, 5-[6-({[3-(2,6-Dichlorophenyl)-5-(1-methylethyl)-4-isoxazolyl]methyl}oxy)-2-naphthalenyl]-2-thiophenecarboxylic acid] yielded an EC50 of 0.102 to 1 µM.

In the case of `CC(C)c1onc(-c2c(Cl)cccc2Cl)c1COc1ccc2ccc(-c3cccc(C(=O)O)c3)cc2c1` [Example 33, 3-[7-({[3-(2,6-Dichlorophenyl)-5-(1-methylethyl)-4-isoxazolyl]methyl}oxy)-2-naphthalenyl]benzoic acid], the EC50 is reported as 0.102 to 1 µM.

Work on `CC(C)c1onc(-c2c(Cl)cccc2Cl)c1COc1ccc2c(ccn2S(=O)(=O)c2cccc(C(=O)O)c2)c1` [Example 43, 3-{[5-({[3-(2,6-Dichlorophenyl)-5-(1-methylethyl)-4-isoxazolyl]methyl}oxy)-1H-indol-1-yl]sulfonyl}benzoic acid] yielded an EC50 of 0.102 to 1 µM.

Work on `CC(C)c1onc(-c2c(Cl)cccc2Cl)c1COc1ccc2c(ccn2Cc2nc(C(=O)O)cs2)c1` [Example 51, 2-{[5-({[3-(2,6-Dichlorophenyl)-5-(1-methylethyl)-4-isoxazolyl]methyl}oxy)-1H-indol-1-yl]methyl}-1,3-thiazole-4-carboxylic acid] yielded an EC50 of 0.102 to 1 µM.

Work on `CC(=O)Nc1ccc(-c2ccc3cc(OCc4c(-c5c(Cl)cccc5Cl)noc4C(C)C)ccc3c2)cc1` [Example 31, N-{4-[6-({[3-(2,6-dichlorophenyl)-5-(1-methylethyl)-4-isoxazolyl]methyl}oxy)-2-naphthalenyl]phenyl}acetamide] yielded an EC50 of 0.102 to 1 µM.

In the case of `CC(C)c1onc(-c2c(Cl)cccc2Cl)c1COc1ccc2c(ccn2Cc2cccc(-c3nnn[nH]3)c2)c1` [Example 12, 5-({[3-(2,6-Dichlorophenyl)-5-(1-methylethyl)-4-isoxazolyl]methyl}oxy)-1-{[3-(1H-tetrazol-5-yl)phenyl]methyl}-1H-indole], the EC50 is reported as 0.102 to 1 µM.

`CC(C)c1onc(-c2c(Cl)cccc2Cl)c1COc1ccc2c(Nc3cccc(C(=O)O)c3)cccc2c1` [Example 40, 3-{[6-({[3-(2,6-Dichlorophenyl)-5-(1-methylethyl)-4-isoxazolyl]methyl}oxy)-1-naphthalenyl]amino}benzoic acid] gave an EC50 of 0.102 to 1 µM.

With `CC(C)c1onc(-c2c(Cl)cccc2Cl)c1CCc1nc2cc(-c3cccc(C(=O)O)c3)ccc2o1` [Example 39, 3-(2-{2-[3-(2,6-dichlorophenyl)-5-(1-methylethyl)-4-isoxazolyl]ethyl}-1,3-benzoxazol-5-yl)benzoic acid] the EC50 was 1.02 to 10 µM.

With `CC(C)c1onc(-c2c(Cl)cccc2Cl)c1COc1ccc2c(ccn2C(=O)N2CC[C@H](C(=O)O)C2)c1` [Example 55, (3S)-1-{[5-({[3-(2,6-Dichlorophenyl)-5-(1-methylethyl)-4-isoxazolyl]methyl}oxy)-1H-indol-1-yl]carbonyl}-3-pyrrolidinecarboxylic acid] the EC50 was 0.102 to 1 µM.

`CC(C)c1onc(-c2c(Cl)cccc2Cl)c1CCc1nc2cccc(Nc3cccc(C(=O)O)c3)c2o1` [Example 41, 3-[(2-{2-[3-(2,6-Dichlorophenyl)-5-(1-methylethyl)-4-isoxazolyl]ethyl}-1,3-benzoxazol-7-yl)amino]benzoic acid] was tested, and the EC50 was 1.02 to 10 µM.

For `CC(C)c1onc(CSc2nccs2)c1COc1ccc2c(ccn2Cc2cccc(C(=O)O)c2)c1` [Example 6, 3-({5-[({5-(1-methylethyl)-3-[(1,3-thiazol-2-ylthio)methyl]-4-isoxazolyl}methyl)oxy]-1H-indol-1-yl}methyl)benzoic acid], the EC50 was 1.02 to 10 µM.

`CC(C)c1onc(-c2c(Cl)cccc2Cl)c1COc1ccc2cc(-c3cccc(C(=O)O)c3)sc2c1` [Example 36, 3-[6-({[3-(2,6-Dichlorophenyl)-5-(1-methylethyl)-4-isoxazolyl]methyl}oxy)-1-benzothien-2-yl]benzoic acid] was tested, and the EC50 was 0.102 to 1 µM.

For `CC(C)c1onc(-c2c(Cl)cccc2Cl)c1COc1ccc2c(ccn2Cc2cccc(C(=O)O)c2)c1` [Example 59, 3-{[5-({[3-(2,6-Dichlorophenyl)-5-(1-methylethyl)-4-isoxazolyl]methyl}oxy)-1H-indol-1-yl]methyl}benzoic acid], the EC50 was 0.102 to 1 µM.

With `CC(C)c1onc(COc2c(Cl)cc(Cl)cc2Cl)c1COc1ccc2c(ccn2Cc2cccc(C(=O)O)c2)c1` [Example 3, 3-[(5-{[(5-(1-methylethyl)-3-{[(2,4,6-trichlorophenyl)oxy]methyl}-4-isoxazolyl)methyl]oxy}-1H-indol-1-yl)methyl]benzoic acid] the EC50 was 0.102 to 1 µM.

With `CC(=O)N(C(C)=O)c1cccc(-c2ccc3cc(OCc4c(-c5c(Cl)cccc5Cl)noc4C(C)C)ccc3c2)c1` [Example 27, N-acetyl-N-{3-[6-({[3-(2,6-dichlorophenyl)-5-(1-methylethyl)-4-isoxazolyl]methyl}oxy)-2-naphthalenyl]phenyl}acetamide] the EC50 was 0.102 to 1 µM.

Work on `CC(C)c1onc(-c2c(Cl)cccc2Cl)c1COc1ccc2cc(-c3cccc(C(=O)O)c3)ccc2c1` [Example 38, 3-[6-({[3-(2,6-Dichlorophenyl)-5-(1-methylethyl)-4-isoxazolyl]methyl}oxy)-2-naphthalenyl]benzoic acid] yielded an EC50 of 0.102 to 1 µM.
